From patent publication US20150004110A1, “NOVEL ANTI-AGING AND DEPIGMENTING COSMETIC COMPOSITIONS” (DIVERCHIM, priority 2011, published 2015) come the findings set out here.

Data set [1] deals with skin explants (abdominoplasty). The data set can be described thus: Histological assessment of the general morphology of skin explants maintained in survival. It counts as cell-based, human. The settings on record: 2 μg/mL in DMSO, after 9 days of survival. On the procedure:
1. Preparation of the explants • During abdominoplasty of a person, 45 skin explants were prepared. The explants were put in BEM medium (BIO-EC's Explants Medium) for survival at 37° C. in humid atmosphere, enriched with 5% CO2.
2. Application of the products • The solutions are prepared in DMSO from pure products, in order to obtain final concentrations of […] by incorporating an identical volume of 10 μl in each well and for each treatment. The treatment was carried out in the survival medium on days 0, 1, 2, 5 and 7.
3. Taking samples • On D0, the 3 explants of batch TO were taken and each explant was cut in two. One part was fixed in buffered formol for observation of the general morphology. The other was frozen and stored at −80° C. • On D5 and D9, 3 explants from each batch were taken and treated in the same way.
4. […]
5. Microscopic observations • The microscopic observations were carried out by light microscopy and fluorescence microscopy, using a Orthoplan-type Leica microscope, with ×25 objective. The images were recorded with a Sony DXC 390P tri CCD camera and stored using the Leica IM1000 data archiving software. • The general morphology was observed on sections in paraffin after staining with Masson trichrome, Goldner variant according to procedure MO-H-157. […]

Data set [2] relates to B16 melanocytes stimulated with NDP-MSH. The data set can be described thus: Anti-melanogenesis activity: melanin synthesis in B16 melanocytes stimulated with NDP-MSH. Type of data set: cell-based. The settings on record: Melanocyte, read-out: Standardized data Inhibition (%) (melanin). On the procedure:
The depigmenting effect was evaluated on a line of type B16 melanocytes stimulated with NDP-MSH, (natural hormone stimulating melanogenesis; Melanocyte Stimulating Hormone, [Nle, DPhe]-α-MSH). Melanin synthesis was evaluated.
The anti-melanogenesis activity of the compounds in solution in DMSO was evaluated by measuring melanin synthesis in a model of B16 melanocytes stimulated with a stable derivative of α-MSH (natural melanogenesis stimulating hormone): NDP-MSH.
(§1) The melanocytes were seeded in a 96-well plate and were cultured for 24 h (37° C., 5% CO2, DMEM 1 g/L glucose without phenol red supplemented with glucose at 3 g/L, L-glutamine at 2 mM, penicillin at 50 U/mL, streptomycin at 50 μg/mL, foetal calf serum (FCS) at 10%). After incubation, the culture medium was then replaced with culture medium supplemented or not supplemented (unstimulated control) with a stable derivative of α-MSH and containing or not containing (controls) the test compounds or the reference (kojic acid at 25, 100, 400, 800 μg/mL). Each experiment was carried out with n=3, apart from the controls carried out with n=6, then the cells were incubated for 72 h. Wells without cells received in parallel the same quantities of medium supplemented or not supplemented with NDP-MSH and containing or not containing the test compounds or the reference in order to quantify the background noise associated with the presence of the compounds.
After incubation for 72 hours, the total melanin (intra- and extracellular) was quantified by measuring the absorption at 405 nm of each sample (direct reading of the culture plates) against a standard range of melanin (melanin concentrations tested from 0.78 to 100 μg/mL). The background noise, measured in the wells without cells, was subtracted from the measured values so as only to take into account the effect connected with melanin production, without taking into account the possible interference connected with the presence of the compounds. The results were expressed as percentage of melanin relative to the control as well as percentage inhibition.
The operating conditions are the same as in Example 12.

In the next data set the test system is B16 melanocytes. Briefly: Cell viability, MTT reduction test. Type of data set: cell-based. The procedure:
as §1, with “compounds. At the end of the treatment, the cells were incubated in the presence of MTT (tetrazolium salt), the transformation of which to blue crystals of formazan is proportional to the activity of succinate dehydrogenase (mitochondrial enzyme). After dissociation of the cells, the formazan was dissolved in DMSO medium and the optical density (OD), representative of the number of living cells and of their metabolic reactivity, was measured with a microplate reader at 540 nm (VERSAmax, Molecular Devices). The operating conditions are the same as in Example 12.” for “compounds.”

[3] abbreviates: NDP-MSH stimulated B16, 72 h, Table 2.
The mark [4] stands for this setting: 100 μM, comparison with 2 reference molecules, Table 3.

Where two headings read alike, the source gives them in different places.

In the case of `C[C@]12CC[C@H](O)CC1=CC[C@@H]1[C@@H]2CC[C@]2(C)C(=O)CC[C@@H]12` [(+)-dehydroisoandrosterone, reference compound], the “General morphology: epidermal structure and papillary dermis” value in data set [1] was “does not alter the epidermal structure or the papillary dermis”.

`CC(=O)O[C@@H]1[C@@H](OC(C)=O)[C@@H](OC(C)=O)C(Oc2ccccc2CCOc2ccc(F)cc2)O[C@H]1C` (stereo partly shown) [Compound 127]: the inhibition at 30 µM in data set [2] (setting [3]) amounted to 29%. Moreover, the “Viability (MTT) % stimulated control” value in the data set with B16 melanocytes (30 μM, B16, 72 h, Table 2) is 90%.

`CCCc1ccc(OCCc2ccccc2O)cc1` [Compound 130]: the inhibition at 3 µM in data set [2] (3 μM, NDP-MSH stimulated B16, 72 h, Table 2) stood at 72%. The inhibition at 10 µM in data set [2] (10 μM, NDP-MSH stimulated B16, 72 h, Table 2) is 110%. Also, the inhibition at 30 µM in data set [2] (setting [3]) worked out at 116%. Also, the “Viability (MTT) % stimulated control” value in the data set on B16 melanocytes (3 μM, B16, 72 h, Table 2) is 98%; in the data set on B16 melanocytes (10 μM, B16, 72 h, Table 2), 89%; in the data set on B16 melanocytes (30 μM, B16, 72 h, Table 2), 81%.

On to `O=c1cc(CO)occ1O` [Kojic acid, reference compound], for which, in data set [2] (25 μg/mL, NDP-MSH stimulated B16, 72 h, Table 2), the inhibition at 25 µg/mL was found to be 24%. Further, in data set [2] (100 μg/mL, NDP-MSH stimulated B16, 72 h, Table 2), the inhibition at 100 µg/mL is 78%. For the same molecule, the inhibition at 400 µg/mL in data set [2] (400 μg/mL, NDP-MSH stimulated B16, 72 h, Table 2) came to 90%. Also, the “Viability (MTT) % stimulated control” value is 85% with B16 melanocytes (25 μg/mL, B16, 72 h, Table 2); 76% in the data set on B16 melanocytes (100 μg/mL, B16, 72 h, Table 2); 76% in the data set with B16 melanocytes (400 μg/mL, B16, 72 h, Table 2).

Consider `COc1ccc(CCCc2ccc(O)cc2O)c(OC)c1C` [Ref 2, 1-(2,4-dihydroxyphenyl)-3-(2,4-dimethoxy-3-methylphenyl)propane, reference compound], for which the inhibition at 30 µM in data set [2] (comparison with 2 reference molecules, Table 3) was 45%. Moreover, the inhibition at 100 µM in data set [2] (setting [4]) came to 113%. Further, the “Viability (MTT) % stimulated control” value in the data set on B16 melanocytes (30 μM, comparison with 2 reference molecules, Table 3) is on record as 102%; in the data set on B16 melanocytes (setting [4]), 76%.

The term inhibition denotes the drop in the measured response relative to a control, in per cent.
